Literature values, collected in patent publication US7288574B2, “Two-phase oxygenated solution and method of use” (priority 2001, dated 2007).

Details: equilibrium with air (pO2=0.21) at 77° F.

solubility limit of oxygen in water: approximately 8.3 mg/l
SMILES: O=O [oxygen]
